Key:
[1] = molecular target: T1, Dga1pΔ85 (Yarrowia lipolytica, UniProt Q6C3R2); assay: fluorescent DGAT assay, HPTLC of NBD-TG; assay type: biochemical
T1 construct: gene YALI0_E32769g; lacks 85 N-terminal residues (incl. putative TM domain) of the 515-residue protein; N-terminal MBP fusion kept, ~90 kDa, pMalc2X, E. coli BL21 (DE3) pLysS; dimer on SEC

[2] = molecular target: T1, Dga1pΔ85; assay: fluorescent DGAT assay, HPTLC of NBD-TG; assay type: biochemical; settings: 1 mM niacin; 100 μM C18:0-CoA, 100 μM NBD-DG, 20 mM MgCl2, Hepes pH 7.6, 31°C; noncompetitive (per cited literature)
[3] = molecular target: T2, Dga1pΔ19 (Yarrowia lipolytica, UniProt Q6C3R2); assay: fluorescent DGAT assay, HPTLC of NBD-TG; assay type: biochemical; settings: 1 mM niacin; 100 μM C18:0-CoA, 100 μM NBD-DG, 20 mM MgCl2, Hepes pH 7.6, 31°C; noncompetitive (per cited literature)
T2 construct: gene YALI0_E32769g; lacks 19 N-terminal residues of the printed 515-residue protein; N-terminal MBP fusion kept, ~99 kDa, pMalc2X, E. coli BL21 (DE3) pLysS; dimer on SEC
T2 sequence (Q6C3R2 entry or part of it, stated change not applied): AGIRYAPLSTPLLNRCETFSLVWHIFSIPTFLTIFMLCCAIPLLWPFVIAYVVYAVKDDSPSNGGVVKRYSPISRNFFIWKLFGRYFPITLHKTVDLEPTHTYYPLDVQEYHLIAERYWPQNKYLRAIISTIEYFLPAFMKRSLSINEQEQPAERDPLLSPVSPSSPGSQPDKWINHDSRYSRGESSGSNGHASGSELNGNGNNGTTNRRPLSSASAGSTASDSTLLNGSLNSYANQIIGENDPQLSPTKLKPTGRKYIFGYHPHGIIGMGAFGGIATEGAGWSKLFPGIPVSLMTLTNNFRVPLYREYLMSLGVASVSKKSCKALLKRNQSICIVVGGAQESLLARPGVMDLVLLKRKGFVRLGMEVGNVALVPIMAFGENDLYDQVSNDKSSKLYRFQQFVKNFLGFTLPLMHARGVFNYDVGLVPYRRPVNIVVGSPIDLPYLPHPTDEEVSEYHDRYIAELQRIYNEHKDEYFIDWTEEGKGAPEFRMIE

[4] = molecular target: T2, Dga1pΔ19; assay: fluorescent DGAT assay, HPTLC of NBD-TG; assay type: biochemical; settings: acyl donor; 100 μM NBD-DG, 20 mM MgCl2, Hepes pH 7.6, 0.01% tween 20, 31°C
[5] = molecular target: MBP-Dga1pΔ19 fusion protein (Yarrowia lipolytica); assay: SEC; Hiload 16/60 Superdex 200 column, 4°C; amylose-purified fractions incubated overnight with lysis buffer (50 mM Tris-HCl pH 7.5, 150 mM NaCl, 5% glycerol, 1 mM EDTA, 1 mM TCEP) with 0.5% N-lauroyl sarcosine before the column; major peak taken as a dimer
[6] = molecular target: MBP-Dga1pΔ85 construct (Yarrowia lipolytica); assay: as above

T1 sequence (Q6C3R2 entry or part of it, stated change not applied): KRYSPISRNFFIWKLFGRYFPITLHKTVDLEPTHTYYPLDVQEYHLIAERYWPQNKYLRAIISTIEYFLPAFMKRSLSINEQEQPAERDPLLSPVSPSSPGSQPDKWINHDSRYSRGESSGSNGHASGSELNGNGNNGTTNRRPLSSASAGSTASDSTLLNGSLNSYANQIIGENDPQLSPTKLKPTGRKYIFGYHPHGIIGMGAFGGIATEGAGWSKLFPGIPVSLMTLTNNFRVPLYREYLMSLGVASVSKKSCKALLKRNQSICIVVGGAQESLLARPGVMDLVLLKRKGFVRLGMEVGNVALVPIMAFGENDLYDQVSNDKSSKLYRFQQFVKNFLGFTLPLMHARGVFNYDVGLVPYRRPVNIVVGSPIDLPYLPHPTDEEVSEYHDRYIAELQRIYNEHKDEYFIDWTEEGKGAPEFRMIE

Molecule: CCCCCCCCCC(=O)O[C@@H](CO)COC(=O)CCCCCCCCCNc1ccc([N+](=O)[O-])c2nonc12 [NBD-DG]
- fluorescent DGAT assay, HPTLC of NBD-TG ([1]; acyl acceptor, labelled compound, 100 μM with C18:0-CoA, 20 mM MgCl2, Hepes pH 7.6, 31°C): both recombinant enzymes harbored increasing DGAT activities in the presence of various C18:0-CoA concentrations

Molecule: O=C(O)c1cccnc1 [niacin]
- % decrease of TG production at 1 mM [2]: 99.5%
- % decrease of TG production at 1 mM [3]: 70%

Molecule: CCCCCCCCCCCCCCCCCC(=O)SCCNC(=O)CCNC(=O)[C@H](O)C(C)(C)COP(=O)(O)OP(=O)(O)OC[C@H]1O[C@@H](n2cnc3c(N)ncnc32)[C@H](O)[C@@H]1OP(=O)(O)O [stearoyl-CoA]
- fluorescent DGAT assay, HPTLC of NBD-TG ([1]; acyl donor, 100 μM NBD-DG, 20 mM MgCl2, Hepes pH 7.6, 0.01% tween 20, 31°C): C18:0-CoA was an efficient acyl donor for both enzyme versions
- fluorescent DGAT assay, HPTLC of NBD-TG [4]: C18:0-CoA was an efficient acyl donor for both enzyme versions

Molecule: MBP-Dga1pΔ19 fusion protein (domain or fragment)
- stoichiometry N [5]: 2

Molecule: MBP-Dga1pΔ85 construct (domain or fragment)
- stoichiometry N [6]: 2

Reference: publication PMC5079557, “Expression of Soluble Forms of Yeast Diacylglycerol Acyltransferase 2 That Integrate a Broad Range of Saturated Fatty Acids in Triacylglycerols” (PLoS ONE, 2016)
